Activity calls are given as the source filed them. The calls are words filed in the database; no cut-off is given here.
Tests used:
[1] = target: T1, L-lactate dehydrogenase A chain (Homo sapiens, UniProt P00338); test: Inhibition of LDH5 in human MG63 cells assessed as increase in oxygen consumption rate at 1 to 10 uM after 4 hrs; type: cell-based
[2] = target: T1, L-lactate dehydrogenase A chain; test: Inhibition of human LDH5 using pyruvate as substrate after 10 mins
[3] = target: T1, L-lactate dehydrogenase A chain; test: Inhibition of human LDH5 at 1 uM using pyruvate as substrate after 10 mins
MG-63 [4] = test: Antiproliferative activity against human MG63 cells after 72 hrs by MTT assay; type: functional, cell-based; details: MG-63, 72 h
MG-63 [5] = test: Antiproliferative activity against human MG63 cells at 10 uM after 72 hrs by MTT assay; type: functional, cell-based
[6] = target: T1, L-lactate dehydrogenase A chain; test: Inhibition of LDH5 in human MG63 cells assessed as induction of ROS generation at 5 to 10 uM after 4 hrs by DCFH-DA staining-based fluorescence assay; type: cell-based
[7] = target: T1, L-lactate dehydrogenase A chain; test: Inhibition of LDH5 in human MG63 cells assessed as decrease in extracellular acidification rate after 4 hrs; type: cell-based
[8] = target: T1, L-lactate dehydrogenase A chain; test: Inhibition of LDH5 in human MG63 cells assessed as decrease in lactate formation after 4 hrs; type: cell-based
MG-63 [9] = test: Antiproliferative activity in human MG63 cells at 4 uM after 24 to 72 hrs by IncuCyte zoom live cell imaging method; type: functional, cell-based
[10] = target: T1, L-lactate dehydrogenase A chain; test: Inhibition of LDH5 in human MG63 cells assessed as increase in oxygen consumption rate at 1 uM after 4 hrs; type: cell-based
MG-63 [11] = test: Antiproliferative activity against human MG63 cells at 4 uM after 72 hrs by MTT assay; type: functional, cell-based
[12] = target: T1, L-lactate dehydrogenase A chain; test: Inhibition of human LDH5 at 10 uM using pyruvate as substrate after 10 mins

Row | EC50 [2] [µM] | inhibition [3] | SMILES | IC50 (MG-63 [4]) [µM] | Activity (MG-63 [5]) | Activity (MG-63 [11]) | inhibition [12] | other results
1 | 0.39 | Active | COc1cccc(CN2CCCCC23CC3)c1OC[C@@H](O)CN1CCOCC1 | 3.18 | Active | – | – | Activity [1]: Active; Activity [6]: Active; inhibition [7]: Dose-dependent effect; inhibition [8]: Dose-dependent effect; Activity (MG-63 [9]): Active
2 | 0.67 | Active | Cc1cccc(OC[C@H](O)CN2CCN(CCN3C(=O)c4cccc5cccc(c45)C3=O)CC2)c1C | – | Active | inactive | – | –

More lines, now with the values behind:

Row | SMILES | EC50 [2] [µM] | inhibition [3] | IC50 (MG-63 [4]) [µM] | Activity (MG-63 [5]) | Activity (MG-63 [11]) | inhibition [12] | other results
3 | O=C1N[C@](c2ccc(N3CCOCC3)cc2)(c2ccsc2)CC(O)=C1Sc1ccccc1Cl | – | – | 0.66 | – | – | – | Activity [10]: Active
4 | O=C(Cn1ccnc1-c1ccccc1)NC[C@@H]1COc2ccccc2O1 | – | – | – | Active | inactive | – | –
5 | COc1ccc([C@@H](NCc2c[nH]nc2-c2ccc(F)cc2)c2ccncc2)cc1 | – | – | – | – | – | inactive | –
6 | Cc1nc(C)c(CC(=O)N2CCN(CCOc3ccccc3)CC2)c(=O)[nH]1 | – | – | – | – | – | inactive | –

Source: ChEMBL document CHEMBL4118242, “Computer-aided discovery and biological characterization of human lactate dehydrogenase 5 inhibitors with anti-osteosarcoma activity” (Bioorg Med Chem Lett, 2018)
